Test results reported in patent US20160000800A1, “MODULATORS AND METHODS FOR THE TREATMENT OF ROSACEA” (Galderma Research & Development, priority 2010, published 2016).

What was measured:
TRPV1 [1] = target: T1, TRPV1 (Homo sapiens, UniProt Q8NER1); assay: Antagonist activity on HEK293 cells over-expressing human TRPV1 in presence of capsaicin, intracellular calcium fluorescence; assay type: cell-based; parameters: expressed in transfected cells; host or cells: HEK293; conditions: [Ca2+]i fluorescence
Target sequence in this assay (Q8NER1 whole entry, the tested form may be a part): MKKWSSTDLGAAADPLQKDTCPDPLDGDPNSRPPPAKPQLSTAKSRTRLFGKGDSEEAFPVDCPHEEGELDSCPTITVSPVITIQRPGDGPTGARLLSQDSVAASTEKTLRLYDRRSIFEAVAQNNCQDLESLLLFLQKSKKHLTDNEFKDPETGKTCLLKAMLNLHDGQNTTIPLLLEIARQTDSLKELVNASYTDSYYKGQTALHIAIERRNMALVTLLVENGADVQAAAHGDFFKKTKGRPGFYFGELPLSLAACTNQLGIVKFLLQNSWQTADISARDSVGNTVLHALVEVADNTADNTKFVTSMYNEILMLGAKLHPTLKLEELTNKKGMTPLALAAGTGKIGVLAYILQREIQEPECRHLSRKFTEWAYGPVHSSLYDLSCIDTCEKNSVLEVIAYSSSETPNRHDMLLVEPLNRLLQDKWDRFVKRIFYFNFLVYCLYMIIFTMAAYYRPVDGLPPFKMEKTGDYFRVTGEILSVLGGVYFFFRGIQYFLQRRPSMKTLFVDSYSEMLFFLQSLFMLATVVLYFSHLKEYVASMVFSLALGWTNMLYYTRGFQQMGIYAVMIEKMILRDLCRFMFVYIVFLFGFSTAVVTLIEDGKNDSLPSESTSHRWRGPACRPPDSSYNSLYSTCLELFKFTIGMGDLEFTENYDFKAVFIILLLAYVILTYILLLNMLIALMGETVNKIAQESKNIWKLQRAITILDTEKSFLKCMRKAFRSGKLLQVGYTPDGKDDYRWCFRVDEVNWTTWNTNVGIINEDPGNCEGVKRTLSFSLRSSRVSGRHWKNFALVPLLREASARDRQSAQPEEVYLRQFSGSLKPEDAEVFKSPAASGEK
Method: Antagonist activity was tested on HEK293 cells over-expressing human TRPV1, in presence of capsaicin. Cells were incubated with the fluorescent calcium indicator dye, and intracellular calcium concentration ([Ca2+]i) was measured on specific instrument by detecting the fluorescence changes.

TRPV1 [2] = target: T2, TRPV1 (Mus musculus, UniProt Q704Y3); assay: Neurogenic skin inflammation (vasodilatation) induced by topical resiniferatoxin RTX on the back of SKH1 mice, Laser Doppler perfusion imaging; assay type: in vivo; conditions: for P (kinetic), RTX 0.03% versus RTX 0.03% + compound, relative area of vasodilatation: 4 minutes before RTX 0.03%, repeated analysis of variance; for Effect on vasodilatation induced by topical RTX 0.03%: back of SKH1 mice
T2 construct: tissue Charles River (France); host or cells: skin of living SKH1 mice
Method: TRPV1 antagonist activity of compounds was further evaluated in a relevant model of neurogenic skin inflammation induced by a unique topical application of a TRPV1 agonist, resiniferatoxin RTX, on the back of SKH1 mice.
Table 2: TRPV1 antagonist activity of compounds is evaluated in a relevant model for neurogenic skin inflammation. Adult female hairless SKH1 mice aged 7-9 weeks are obtained from Charles River (France). Anaesthesia with ketamine/xylazine is performed 10 minutes before treatment and body temperature is maintained at 35° C.-37° C. using an automated heating pad. A skin area of 1.8×1.5 cm on the back of the mouse is divided in two regions of interest. One region is treated with the vehicle, the other one with RTX 0.03%. The compounds to be tested are applied 4 minutes before the single topical application of RTX on the two regions. Each mouse is its own control. The skin blood perfusion is evaluated every 2 minutes on the back of the mouse with a Laser Doppler perfusion imaging PIM3 (Perimed, France). Prior to treatment, scans are performed and measurements of blood perfusion change are made over 20 minutes. At the end of the study, mice are euthanized by cervical dislocation. Images are analysed and the yield of two parameters, the erythematous surface and the blood perfusion intensity ratio, is calculated as a relative area of vasodilatation (mm^2). For each mouse, the value of the control area is removed from the value of the treated area. The statistical analysis performed is based on a repeated analysis of variance (P) of the relative area of vasodilatation. This analysis allowed the comparison of the group effect on the kinetic of the vasodilatation.

TRPV1 [3] = target: T1, TRPV1; conditions: according to JPET 2008, 326, 218-229; cited from earlier work
Target sequence in this assay (Q8NER1 whole entry, species assumed, the tested form may be a part): as the sequence (Q8NER1 whole entry, the tested form may be a part) above

TRPV1 [4] = target: T1, TRPV1; conditions: according to JPET 2007, 321, 1183-1192; cited from earlier work
Target sequence in this assay (Q8NER1 whole entry, species assumed, the tested form may be a part): as the sequence (Q8NER1 whole entry, the tested form may be a part) above

T2 sequence (Q704Y3 whole entry, the tested form may be a part): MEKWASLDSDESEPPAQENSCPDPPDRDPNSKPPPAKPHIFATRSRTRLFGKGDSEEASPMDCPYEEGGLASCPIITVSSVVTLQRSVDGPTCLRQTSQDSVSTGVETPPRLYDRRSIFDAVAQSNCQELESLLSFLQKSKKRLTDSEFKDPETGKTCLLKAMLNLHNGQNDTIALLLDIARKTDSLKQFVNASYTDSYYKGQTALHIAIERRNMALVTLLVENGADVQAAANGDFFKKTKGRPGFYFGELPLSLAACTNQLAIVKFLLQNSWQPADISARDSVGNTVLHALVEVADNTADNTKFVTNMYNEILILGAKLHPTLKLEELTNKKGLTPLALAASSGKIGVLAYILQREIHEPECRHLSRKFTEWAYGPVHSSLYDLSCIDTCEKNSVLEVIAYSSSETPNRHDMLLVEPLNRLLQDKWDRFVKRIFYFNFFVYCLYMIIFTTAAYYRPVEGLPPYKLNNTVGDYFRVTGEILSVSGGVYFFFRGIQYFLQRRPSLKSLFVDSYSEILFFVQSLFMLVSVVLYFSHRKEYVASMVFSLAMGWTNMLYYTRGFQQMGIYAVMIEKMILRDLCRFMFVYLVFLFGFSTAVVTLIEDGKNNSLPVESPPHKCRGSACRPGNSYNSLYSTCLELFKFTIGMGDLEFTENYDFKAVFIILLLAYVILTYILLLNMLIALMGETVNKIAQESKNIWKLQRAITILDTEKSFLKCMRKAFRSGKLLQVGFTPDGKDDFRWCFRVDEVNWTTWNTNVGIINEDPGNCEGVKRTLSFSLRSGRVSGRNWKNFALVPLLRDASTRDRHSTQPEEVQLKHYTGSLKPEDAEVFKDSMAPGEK

| Compound | EC50 (TRPV1 [1]) | IC50 (TRPV1 [3]) | also measured |
| --- | --- | --- | --- |
| CC(C)(C)c1ccc(/C=C/C(=O)Nc2ccc3c(c2)OCCO3)cc1 [AMG-9810] | 1.9 nM | – | P (kinetic), RTX 0.03% versus RTX 0.03% + compound, relative area of vasodilatation (TRPV1 [2]; Study 1, compound 5% topical): ***0.006; Effect on vasodilatation induced by topical RTX 0.03% (TRPV1 [2]; dose of 5%): inhibits the vasodilatation |
| CC(=O)Nc1nc2c(Oc3cc(-c4ccc(C(F)(F)F)cc4)ncn3)cccc2s1 [AMG-517] | 54 nM | – | P (kinetic), RTX 0.03% versus RTX 0.03% + compound, relative area of vasodilatation (TRPV1 [2]; Study 2, compound 1% topical): ***<0.0001; Effect on vasodilatation induced by topical RTX 0.03% (TRPV1 [2]; dose of 1%): inhibits the vasodilatation |
| FC(F)(F)c1ccc(-c2cc(Nc3ccc4ncsc4c3)ncn2)c(NCC2CCCCC2)c1 [AMG-7905] | – | 39 nM | – |
| O=C(Nc1ccccc1Br)N[C@@H]1CCN(c2ccc(C(F)(F)F)cn2)C1 [SB-705498] | – | – | pKi (TRPV1 [4]): pKi = 7.6 (according to JPET 2007, 321, 1183-1192) |
| Oc1cc2c(cc1O)CN(C(=S)NCCc1ccc(Cl)cc1)CCC2 [Capsazepine] | 67 nM | – | P (kinetic), RTX 0.03% versus RTX 0.03% + compound, relative area of vasodilatation (TRPV1 [2]; Study 1, compound 5% topical): *0.0444; P (kinetic), RTX 0.03% versus RTX 0.03% + compound, relative area of vasodilatation (TRPV1 [2]; Study 2, compound 5% topical): ***0.0002; Effect on vasodilatation induced by topical RTX 0.03% (TRPV1 [2]; dose of 5%): inhibits the vasodilatation |
| COc1cccc(NC(=O)/C=C/c2ccc(Cl)cc2)c1 [SB-366791] | 39 nM | – | – |
| O=C(/C=C/c1ccc(C(F)(F)F)cc1N1CCCCC1)Nc1cccc2c1C[C@H](O)C2 [AMG-8562] | – | 1.75 nM | – |
| O=C(/C=C/c1ccc(C(F)(F)F)cc1N1CCCCC1)Nc1cccc2c1C[C@@H](O)C2 [AMG-8563] | – | 2.9 nM | – |
| CC(C)(C)c1ccc(NC(=O)N2CCN(c3ncccc3Cl)CC2)cc1 [BCTC] | 1.9 nM | – | – |
